Structures are written as SMILES.

This note sets out measurements from ChEMBL document CHEMBL5465560, “Selectivity Literature for EUbOPEN Chemogenomic Library” (2024).

The target of test [1] is Serine/threonine-protein kinase PLK1 (Homo sapiens, UniProt P53350). The following applies: at 10 µM.
The target of test [2] is Tyrosine-protein kinase HCK (Homo sapiens) (UniProt P08631). Kind of test: Selectivity interaction (Ambit KINOMEscan and KiNATiv profiling in Jurkat cells) EUB0000090b HCK. Format: cell-based. The conditions noted are these: at 1 µM.
The target in test [3] is T1, Serine/threonine-protein kinase Nek9 (Homo sapiens) (UniProt Q8TD19).
T1 sequence (whole entry): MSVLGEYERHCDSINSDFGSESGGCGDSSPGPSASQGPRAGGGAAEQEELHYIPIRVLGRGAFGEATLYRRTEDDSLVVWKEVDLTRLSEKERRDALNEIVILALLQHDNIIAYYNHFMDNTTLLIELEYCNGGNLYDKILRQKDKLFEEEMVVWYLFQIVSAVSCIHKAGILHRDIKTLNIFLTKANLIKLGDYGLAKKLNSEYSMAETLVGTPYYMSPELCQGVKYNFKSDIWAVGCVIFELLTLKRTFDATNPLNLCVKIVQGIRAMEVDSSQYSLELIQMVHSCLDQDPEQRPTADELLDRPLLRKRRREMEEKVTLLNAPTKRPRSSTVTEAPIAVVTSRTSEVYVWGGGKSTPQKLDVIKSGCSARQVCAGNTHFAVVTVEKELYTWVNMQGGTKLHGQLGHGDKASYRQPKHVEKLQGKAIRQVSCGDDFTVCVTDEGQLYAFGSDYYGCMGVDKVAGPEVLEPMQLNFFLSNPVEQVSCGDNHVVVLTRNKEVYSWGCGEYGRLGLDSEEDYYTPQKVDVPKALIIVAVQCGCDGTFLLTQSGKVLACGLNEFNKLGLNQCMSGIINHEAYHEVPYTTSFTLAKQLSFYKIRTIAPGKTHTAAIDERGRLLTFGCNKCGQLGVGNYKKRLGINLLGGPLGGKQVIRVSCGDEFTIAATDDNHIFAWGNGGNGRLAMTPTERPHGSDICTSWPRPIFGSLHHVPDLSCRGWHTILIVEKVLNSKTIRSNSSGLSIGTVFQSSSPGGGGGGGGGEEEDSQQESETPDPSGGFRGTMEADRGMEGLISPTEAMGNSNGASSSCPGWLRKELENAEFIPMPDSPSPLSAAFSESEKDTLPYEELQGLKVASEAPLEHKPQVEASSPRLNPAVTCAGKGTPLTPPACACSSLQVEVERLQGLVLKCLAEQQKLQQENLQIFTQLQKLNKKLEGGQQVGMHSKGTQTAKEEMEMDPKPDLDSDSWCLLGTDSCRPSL
Put plainly: Selectivity interaction (KinomeScan (DiscoverX)) EUB0000655a NEK9. The conditions noted are these: at 10 µM.

Test [4] has as its target Serine/threonine-protein kinase 25 (Homo sapiens) (UniProt O00506). Kind of test: Selectivity interaction (KinomeScan (DiscoverX)) EUB0000655a STK25. The following applies: at 10 µM.
Test [5] deals with T2, Phosphatidylinositol 5-phosphate 4-kinase type-2 beta (Homo sapiens) (UniProt P78356).
T2 sequence (whole entry): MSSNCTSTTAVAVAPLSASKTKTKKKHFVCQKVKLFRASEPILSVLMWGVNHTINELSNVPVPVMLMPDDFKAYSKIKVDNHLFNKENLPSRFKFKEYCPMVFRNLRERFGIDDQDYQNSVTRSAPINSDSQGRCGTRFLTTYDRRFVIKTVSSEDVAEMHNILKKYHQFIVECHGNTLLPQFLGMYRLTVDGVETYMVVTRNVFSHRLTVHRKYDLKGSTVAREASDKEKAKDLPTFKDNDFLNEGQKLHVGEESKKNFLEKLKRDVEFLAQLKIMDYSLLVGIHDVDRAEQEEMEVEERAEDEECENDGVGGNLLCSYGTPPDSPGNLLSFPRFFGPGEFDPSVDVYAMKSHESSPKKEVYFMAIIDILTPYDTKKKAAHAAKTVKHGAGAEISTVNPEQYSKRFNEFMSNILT
Kind of test: Selectivity interaction (KinomeScan (DiscoverX)) EUB0000045b PIP4K2B.

The target of test [6] is Serine/threonine-protein kinase MRCK gamma (Homo sapiens) (UniProt Q6DT37). Put plainly: Selectivity interaction (KinomeScan (DiscoverX)) EUB0000607a CDC42BPG. The conditions noted are these: at 10 µM.
The target of test [7] is T3, Dual specificity mitogen-activated protein kinase kinase 6 (Homo sapiens) (UniProt P52564).
T3 sequence (whole entry): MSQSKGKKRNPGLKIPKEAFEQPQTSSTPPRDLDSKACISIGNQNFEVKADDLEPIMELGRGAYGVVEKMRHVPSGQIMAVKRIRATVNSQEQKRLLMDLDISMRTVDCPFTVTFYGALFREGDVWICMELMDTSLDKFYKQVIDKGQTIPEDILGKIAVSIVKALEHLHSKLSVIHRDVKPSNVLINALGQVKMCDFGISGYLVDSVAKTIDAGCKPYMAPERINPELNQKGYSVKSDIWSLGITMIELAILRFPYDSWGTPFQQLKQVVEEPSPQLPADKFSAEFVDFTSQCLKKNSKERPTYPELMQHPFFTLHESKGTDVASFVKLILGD
Put plainly: Selectivity interaction (ActivX KiNativ screen (kinase selectivity in THP-1 cell lysates)) EUB0000639a MAP2K6. Format: subcellular. The following applies: lysate.

Test [8] has as its target Calcium/calmodulin-dependent protein kinase type II subunit beta (Homo sapiens) (UniProt Q13554). Kind of test: Selectivity interaction (Kinase panel (DSF assay)) EUB0001559a CAMK2B.
Test [9] deals with Serine/threonine-protein kinase 26 (Homo sapiens, UniProt Q9P289). The following applies: PBMC, at 1 µM.
The target of test [10] is Phosphatidylinositol 4,5-bisphosphate 3-kinase catalytic subunit beta isoform (Homo sapiens) (UniProt P42338). Kind of test: Selectivity interaction (ActivX KiNativ screen (ex vivo kinase selectivity in human PBMCs)) EUB0001619a PIK3CB. Format: cell-based. The conditions noted are these: PBMC, at 1 µM.
The target of test [11] is T4, Aurora kinase A (Homo sapiens) (UniProt O14965).
T4 sequence (whole entry): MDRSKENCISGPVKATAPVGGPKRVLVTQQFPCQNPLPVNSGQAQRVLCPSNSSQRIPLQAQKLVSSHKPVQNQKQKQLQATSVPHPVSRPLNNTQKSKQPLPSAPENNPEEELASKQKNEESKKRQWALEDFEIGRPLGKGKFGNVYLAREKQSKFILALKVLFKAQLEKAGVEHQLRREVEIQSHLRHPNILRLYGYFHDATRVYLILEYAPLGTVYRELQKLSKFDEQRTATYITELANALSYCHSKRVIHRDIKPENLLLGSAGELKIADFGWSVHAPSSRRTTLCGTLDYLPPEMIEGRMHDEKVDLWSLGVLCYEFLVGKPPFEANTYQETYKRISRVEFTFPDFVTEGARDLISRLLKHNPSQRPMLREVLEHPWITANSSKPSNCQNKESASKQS
Put plainly: Selectivity interaction (Kinase panel (DSF assay)) EUB0001489b STK6.

Sequence of Serine/threonine-protein kinase PLK1 (P53350 whole entry): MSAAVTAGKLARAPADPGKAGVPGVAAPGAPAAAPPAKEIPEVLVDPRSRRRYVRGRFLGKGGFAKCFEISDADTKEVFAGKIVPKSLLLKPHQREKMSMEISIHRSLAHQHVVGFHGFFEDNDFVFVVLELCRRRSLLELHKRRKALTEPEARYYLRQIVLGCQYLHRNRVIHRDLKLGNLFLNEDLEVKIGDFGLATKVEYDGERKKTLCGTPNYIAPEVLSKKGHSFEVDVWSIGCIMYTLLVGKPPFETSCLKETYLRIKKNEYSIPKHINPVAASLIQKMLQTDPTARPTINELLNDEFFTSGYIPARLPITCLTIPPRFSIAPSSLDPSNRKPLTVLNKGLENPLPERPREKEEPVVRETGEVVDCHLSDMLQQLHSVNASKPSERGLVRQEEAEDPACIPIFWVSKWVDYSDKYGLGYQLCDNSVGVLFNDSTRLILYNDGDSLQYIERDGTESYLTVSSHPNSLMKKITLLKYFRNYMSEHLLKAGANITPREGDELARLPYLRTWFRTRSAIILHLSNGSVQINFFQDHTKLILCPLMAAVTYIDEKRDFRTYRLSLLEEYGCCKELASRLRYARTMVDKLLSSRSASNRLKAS
Sequence of Serine/threonine-protein kinase 26 (Q9P289 2-416 limits assumed): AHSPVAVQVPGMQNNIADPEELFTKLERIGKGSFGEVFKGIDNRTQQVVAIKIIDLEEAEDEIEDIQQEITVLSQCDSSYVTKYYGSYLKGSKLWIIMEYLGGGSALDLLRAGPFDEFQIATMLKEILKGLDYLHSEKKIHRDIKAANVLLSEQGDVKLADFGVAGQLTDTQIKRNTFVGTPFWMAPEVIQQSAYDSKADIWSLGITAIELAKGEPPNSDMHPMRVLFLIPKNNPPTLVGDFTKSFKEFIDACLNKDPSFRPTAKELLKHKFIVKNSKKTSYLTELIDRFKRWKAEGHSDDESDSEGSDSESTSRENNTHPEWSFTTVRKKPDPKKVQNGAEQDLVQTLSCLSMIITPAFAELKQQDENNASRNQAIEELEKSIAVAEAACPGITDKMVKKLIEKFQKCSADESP
Sequence of Calcium/calmodulin-dependent protein kinase type II subunit beta (Homo sapiens) (Q13554 whole entry): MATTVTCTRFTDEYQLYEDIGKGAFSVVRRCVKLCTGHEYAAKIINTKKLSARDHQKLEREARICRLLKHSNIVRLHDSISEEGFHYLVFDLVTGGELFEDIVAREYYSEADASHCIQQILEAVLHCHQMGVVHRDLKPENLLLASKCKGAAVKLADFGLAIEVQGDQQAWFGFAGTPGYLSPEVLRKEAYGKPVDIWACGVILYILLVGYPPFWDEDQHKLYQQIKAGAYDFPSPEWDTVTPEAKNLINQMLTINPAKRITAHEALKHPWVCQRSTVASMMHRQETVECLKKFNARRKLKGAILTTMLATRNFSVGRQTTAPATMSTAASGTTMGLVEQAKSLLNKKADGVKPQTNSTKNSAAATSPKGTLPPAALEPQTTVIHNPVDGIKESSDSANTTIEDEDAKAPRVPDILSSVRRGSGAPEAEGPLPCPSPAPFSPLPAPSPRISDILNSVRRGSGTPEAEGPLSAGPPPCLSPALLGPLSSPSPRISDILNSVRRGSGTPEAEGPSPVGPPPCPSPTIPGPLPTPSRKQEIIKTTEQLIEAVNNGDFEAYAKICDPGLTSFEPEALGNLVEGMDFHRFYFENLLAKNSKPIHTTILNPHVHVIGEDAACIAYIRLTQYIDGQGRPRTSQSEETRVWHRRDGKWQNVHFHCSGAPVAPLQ
Sequence of Phosphatidylinositol 4,5-bisphosphate 3-kinase catalytic subunit beta isoform (Homo sapiens) (P42338 whole entry, looked up, canonical isoform): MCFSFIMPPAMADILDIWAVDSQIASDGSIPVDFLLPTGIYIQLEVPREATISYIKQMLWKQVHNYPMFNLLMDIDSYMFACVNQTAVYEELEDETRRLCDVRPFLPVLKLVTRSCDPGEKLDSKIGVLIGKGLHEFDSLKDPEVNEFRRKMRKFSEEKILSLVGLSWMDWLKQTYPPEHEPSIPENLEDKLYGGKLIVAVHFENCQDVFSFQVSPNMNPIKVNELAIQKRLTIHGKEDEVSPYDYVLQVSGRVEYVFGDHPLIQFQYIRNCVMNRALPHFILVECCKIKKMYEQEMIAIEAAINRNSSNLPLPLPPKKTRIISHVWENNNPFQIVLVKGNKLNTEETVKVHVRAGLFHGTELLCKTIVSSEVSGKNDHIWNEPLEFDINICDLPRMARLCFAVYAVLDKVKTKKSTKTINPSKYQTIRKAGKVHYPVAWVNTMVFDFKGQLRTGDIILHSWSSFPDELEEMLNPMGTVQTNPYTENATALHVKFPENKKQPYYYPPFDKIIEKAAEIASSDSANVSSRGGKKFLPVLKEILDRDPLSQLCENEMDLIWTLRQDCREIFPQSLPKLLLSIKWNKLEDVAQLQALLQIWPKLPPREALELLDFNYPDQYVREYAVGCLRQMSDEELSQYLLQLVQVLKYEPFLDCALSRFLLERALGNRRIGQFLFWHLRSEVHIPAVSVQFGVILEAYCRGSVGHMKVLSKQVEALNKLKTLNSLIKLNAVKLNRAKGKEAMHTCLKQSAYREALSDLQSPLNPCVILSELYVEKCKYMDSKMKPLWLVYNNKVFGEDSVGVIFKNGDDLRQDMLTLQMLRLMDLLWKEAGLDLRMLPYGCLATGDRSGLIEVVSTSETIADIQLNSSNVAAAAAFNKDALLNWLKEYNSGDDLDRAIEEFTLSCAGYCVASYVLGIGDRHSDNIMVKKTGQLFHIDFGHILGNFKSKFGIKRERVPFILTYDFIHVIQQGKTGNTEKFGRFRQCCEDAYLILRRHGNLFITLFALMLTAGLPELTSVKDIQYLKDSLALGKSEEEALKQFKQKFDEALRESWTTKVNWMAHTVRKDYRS
Sequence of Serine/threonine-protein kinase 25 (Homo sapiens) (O00506 whole entry, looked up): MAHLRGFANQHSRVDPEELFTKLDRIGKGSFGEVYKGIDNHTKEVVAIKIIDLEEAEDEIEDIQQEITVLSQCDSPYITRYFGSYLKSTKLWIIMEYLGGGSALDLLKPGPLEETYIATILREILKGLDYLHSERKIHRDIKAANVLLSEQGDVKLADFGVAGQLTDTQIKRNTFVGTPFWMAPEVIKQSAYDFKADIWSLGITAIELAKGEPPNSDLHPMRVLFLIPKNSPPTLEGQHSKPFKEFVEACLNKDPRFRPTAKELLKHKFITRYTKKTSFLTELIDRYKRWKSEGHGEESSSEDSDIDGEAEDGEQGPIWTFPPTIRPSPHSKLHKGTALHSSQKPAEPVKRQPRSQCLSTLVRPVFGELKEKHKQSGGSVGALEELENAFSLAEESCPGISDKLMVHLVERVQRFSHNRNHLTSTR
Sequence of Serine/threonine-protein kinase MRCK gamma (Homo sapiens) (Q6DT37 whole entry): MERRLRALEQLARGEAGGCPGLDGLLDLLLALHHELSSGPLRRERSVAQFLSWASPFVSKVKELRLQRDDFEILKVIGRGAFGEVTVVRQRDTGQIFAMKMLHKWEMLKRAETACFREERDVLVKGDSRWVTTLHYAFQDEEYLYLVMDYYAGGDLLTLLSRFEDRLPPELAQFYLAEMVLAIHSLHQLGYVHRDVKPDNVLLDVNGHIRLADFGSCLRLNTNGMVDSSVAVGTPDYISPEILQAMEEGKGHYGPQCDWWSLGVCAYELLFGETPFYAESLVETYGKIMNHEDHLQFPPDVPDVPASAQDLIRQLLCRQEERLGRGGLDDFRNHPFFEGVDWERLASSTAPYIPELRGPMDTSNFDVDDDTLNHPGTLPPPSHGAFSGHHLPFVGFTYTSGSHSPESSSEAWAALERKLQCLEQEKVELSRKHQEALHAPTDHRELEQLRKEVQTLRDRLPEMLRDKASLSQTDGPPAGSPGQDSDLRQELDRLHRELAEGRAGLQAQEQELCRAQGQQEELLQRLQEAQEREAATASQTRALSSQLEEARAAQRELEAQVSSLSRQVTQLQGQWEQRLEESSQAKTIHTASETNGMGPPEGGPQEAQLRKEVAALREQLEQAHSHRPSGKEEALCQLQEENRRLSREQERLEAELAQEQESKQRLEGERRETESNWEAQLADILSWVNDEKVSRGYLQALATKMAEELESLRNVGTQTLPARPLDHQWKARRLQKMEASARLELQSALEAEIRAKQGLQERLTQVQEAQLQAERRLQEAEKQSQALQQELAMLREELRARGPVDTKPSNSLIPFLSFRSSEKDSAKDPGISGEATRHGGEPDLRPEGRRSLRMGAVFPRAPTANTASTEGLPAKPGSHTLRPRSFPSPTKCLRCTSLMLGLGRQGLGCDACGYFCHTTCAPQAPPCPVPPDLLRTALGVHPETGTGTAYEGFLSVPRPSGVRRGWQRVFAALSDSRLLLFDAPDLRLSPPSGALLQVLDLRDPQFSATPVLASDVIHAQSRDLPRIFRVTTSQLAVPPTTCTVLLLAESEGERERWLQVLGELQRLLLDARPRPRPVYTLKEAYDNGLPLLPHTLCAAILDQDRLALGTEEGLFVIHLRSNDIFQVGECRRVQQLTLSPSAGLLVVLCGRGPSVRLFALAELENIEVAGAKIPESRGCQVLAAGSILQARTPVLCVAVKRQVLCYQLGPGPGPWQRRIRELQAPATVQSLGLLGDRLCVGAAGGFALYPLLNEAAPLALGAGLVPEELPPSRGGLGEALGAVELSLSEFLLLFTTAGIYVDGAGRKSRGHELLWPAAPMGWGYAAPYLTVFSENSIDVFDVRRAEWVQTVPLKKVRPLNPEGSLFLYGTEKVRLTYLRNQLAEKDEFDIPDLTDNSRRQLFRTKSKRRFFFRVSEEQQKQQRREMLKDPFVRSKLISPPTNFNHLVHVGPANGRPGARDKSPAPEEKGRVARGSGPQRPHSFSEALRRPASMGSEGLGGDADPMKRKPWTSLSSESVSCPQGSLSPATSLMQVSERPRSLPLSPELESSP

Compound `Cc1cc([C@@H](C)Nc2ccccc2C(=O)O)c2nc(N3CCOCC3)cc(=O)n2c1` [AZD-6482] gave a % of control in test [1] of 100%. With `CN(C)C/C=C/C(=O)Nc1ccc(C(=O)N2CCCC(Nc3ncc(Cl)c(-c4c[nH]c5ccccc45)n3)C2)cc1` (stereo unspecified), the % of control in [2] came out at 83%. As to `CN(C)CCOc1ccc(-c2nc(-c3ccncc3)c(-c3ccc4c(c3)CC/C4=N\O)[nH]2)cc1`, the % of control in [3] and in test [4] was 100% in each case. With `C=CC(=O)Nc1cc(-n2c(=O)ccc3cnc4ccc(-c5ccc(NS(C)(=O)=O)cc5)cc4c32)ccc1C`, the % of control in test [5] (at 1 µM) is 93%; in test [5] (at 10 µM), 63%. For `CNC(=O)Nc1ccc(-c2nc(N3CC4CCC(C3)O4)c3cnn(C4CCC5(CC4)OCCO5)c3n2)cc1`, in test [6], the % of control came out at 84%. Regarding `CC[C@@H]1[C@H](F)C(=O)N[C@@H]1COc1nccc2cc(C(N)=O)c(OC)cc12` [ZIMLOVISERTIB], the % of inhibition in test [7] (at 0.01 µM) was 10.3%; in test [7] (at 0.04 µM), -4.9%; in [7] (at 0.2 µM), -20.6%; in test [7] (at 1 µM), 17.5%; in test [7] (at 5 µM), 62.3%. For `CN(C(=O)c1cnn2cccnc12)c1cc2c(cc1N1CCOCC1)C(=O)N(C[C@@H](F)C(C)(C)O)C2`, the dTM in test [8] was found to be 0 K. On to `N#Cc1cccc(-c2c[nH]c3ncnc(N4CCOCC4)c23)c1`, for which the % of inhibition is 65% in [9] and -3% in test [10]. With `CN1CCN(C(=O)c2ccc3cc2OCCOCCNc2ccn4ncc-3c4n2)CC1`, the dTM in test [11] worked out at 4.2 K.
